Laboratory results: patent US5431924A, “Anti-inflammatory composition derived from emu oil” (priority 1990, dated 1995)

Test system: male polyarthritic hooded rats
Assay: Polyarthritis in male hooded rats: emu oil before and after uv exposure or benzoyl peroxide oxidation, with and without additives (Table 8)
Details: for anti-inflammatory activity in the rat polyarthritic model: emu oil after exposure to strong ultraviolet light, with or without additive, in words
[1] = Table 8, dose/kg 2 ml (EO), 20 mg (R.A., B-Carotene), 25 mg (Trolox-DE)

`CC(=O)OC/C=C(C)/C=C/C=C(C)/C=C/C1=C(C)CCCC1(C)C` [R.A. in E-Pg, Retinyl acetate] was tested, and the “Mean changes, Thickness Rear Paws, Days 12-16” value [1] was 0.16 mm, the “Mean changes, Thickness Rear Paws, Days 16-20” value [1] was 0.30 mm and the “Mean changes, Thickness Tail, Days 12-16” value [1] was -0.12 mm. For the same molecule, the “Mean changes, Thickness Tail, Days 16-20” value [1] was -0.10 mm, the “Mean changes, Wt Chge, Days 12-16” value [1] was -02 g and the “Mean changes, Wt Chge, Days 16-20” value [1] was “+10 g”. For the same molecule, the “anti-inflammatory activity in the rat polyarthritic model” value was “anti-inflammatory activity could be restored to the oil”.

With `CC1=C(/C=C/C(C)=C/C=C/C(C)=C/C=C/C=C(C)/C=C/C=C(C)/C=C/C2=C(C)CCCC2(C)C)C(C)(C)CCC1` [β-carotene] the “anti-inflammatory activity in the rat polyarthritic model” value was “anti-inflammatory activity could be restored to the oil by the addition of retinyl acetate but not β-carotene”.
